According to ChEMBL document CHEMBL3832058, “DailyMed|setid=78f196d4-110e-45b1-813a-725f52c1a4eb | OXCARBAZEPINE -oxcarbazepine tablet, film coated|Bryant Ranch Prepack”:

Test system: Homo sapiens
Assay: Pharmacokinetic parameters for Oxcarbazepine and its active metabolite, 10-Monohydroxy Carbazepine evaluated after oral administration of Oxcarbazepine tablets.
Type: ADME, organism-based
Details: in vivo, dosed compound id 11, dosed compound name OXCARBAZEPINE; for Excretion: tissue Urine

SMILES | Tmax (dietary status Fasting, gender male, regimen Single dose, tissue Plasma) | t1/2 (dose 300 mg, regimen Single dose, tissue Plasma) | Vd(app) (tissue Plasma) | t1/2 (tissue Plasma) | Excretion
NC(=O)N1c2ccccc2CC(O)c2ccccc21 (configuration not stated) [LICARBAZEPINE] | 4.5 h | 19 h | 49 L | 9 h | 49%
NC(=O)N1c2ccccc2CC(=O)c2ccccc21 [OXCARBAZEPINE] |  |  |  | 2 h | 27%
